Data reported in the supplement of paper PMC10307832.

Legend:
Assay in all cases: relative viability (nuclei count vs DMSO), 5 days (fraction); higher = more cells survive
[1] = compound: C1/C(=C\C2=CC=CS2)/C(=O)/C(=C/C3=CC=CS3)/C1 + C[C@@H](Oc1cc(-c2cnn(C3CCNCC3)c2)cnc1N)c1c(Cl)ccc(F)c1Cl [Crizotinib] (partner 1 µM)
In short: (§1)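 Relative viability was taken as the ratio of nuclei in treated wells to nuclei in vehicle wells. Lung cancer cell lines in 1536-well plates received compounds by pin tool one day after seeding, either one drug alone or a fixed anchor-drug dose plus five library-drug doses (not always all listed) in √10 steps. Nuclei were counted on 4× images after 5 days of treatment, and values are medians of duplicate plates.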

[2] = compound: C1/C(=C\C2=CC=CS2)/C(=O)/C(=C/C3=CC=CS3)/C1 + C[C@]1(O)C[C@@H](c2nc(-c3ccc4ccc(-c5ccccc5)nc4c3)c3c(N)nccn32)C1 [Linsitinib] (partner 1 µM)
In short: as §1

[3] = compound: C1/C(=C\C2=CC=CS2)/C(=O)/C(=C/C3=CC=CS3)/C1 + Nc1ncn([C@H]2C[C@H](O)[C@@H](CO)O2)c(=O)n1 [Decitabine] (partner 2 µM)
In short: as §1

[4] = compound: C[C@]12O[C@H](C[C@]1(O)CO)n1c3ccccc3c3c4c(c5c6ccccc6n2c5c31)CNC4=O [Lestaurtinib] + CC(C)C[C@H](NC(=O)[C@H](Cc1ccccc1)NC(=O)c1cnccn1)B(O)O [Bortezomib] (partner 0.002 µM)
In short: as §1

Cell Line	relative viability ([1]; first compound 0.2 µM)	relative viability ([1]; first compound 0.6325 µM)	relative viability ([1]; first compound 2 µM)	relative viability ([1]; first compound 6.325 µM)	relative viability ([1]; first compound 20 µM)	relative viability ([2]; first compound 0.2 µM)	relative viability ([2]; first compound 0.6325 µM)	relative viability ([2]; first compound 2 µM)	relative viability ([2]; first compound 6.325 µM)	relative viability ([2]; first compound 20 µM)	relative viability ([3]; first compound 0.2 µM)	relative viability ([3]; first compound 0.6325 µM)	relative viability ([3]; first compound 2 µM)	relative viability ([3]; first compound 6.325 µM)	relative viability ([3]; first compound 20 µM)	relative viability ([4]; first compound 0.005 µM)	relative viability ([4]; first compound 0.01581 µM)	relative viability ([4]; first compound 0.05 µM)	relative viability ([4]; first compound 0.1581 µM)	relative viability ([4]; first compound 0.5 µM)
NCI-H661	1.02	0.986	0.948	0.947	1.02	0.692	0.465	0.508	0.559	0.48	0.605	0.567	0.56	0.475	0.496	0.736	0.813	0.831	0.685	0.436
NCI-H727	0.885	0.779	0.755	0.745	0.762	0.263	0.302	0.314	0.228	0.263	0.939	0.976	1.2		0.981	0.862	1.42	0.752	0.76	0.291
NCI-H838	0.896	0.889	0.807	0.784	0.858	1.12	0.979	0.955	0.8	0.94	0.42	0.473	0.468	0.448	0.449	0.79	0.783	0.615	0.472	0.148
NCI-H1355	1.19	1.05	1.03	0.943	1.08	0.906	0.744	0.863	0.666	0.758	0.369	0.388	0.319	0.304	0.325	1.36	1.2	1.21	1.03	0.571
NCI-H1437	0.954	0.886	0.828	0.902	0.824	1.1	1.04	0.993	0.984	0.986	0.547	0.521	0.508	0.518	0.612	0.67	0.479	0.431	0.521	0.429
NCI-H1651	0.863	0.876	0.893	0.816	0.855	1.11	1.06	0.92		1.05	0.616	0.646	0.868	0.357	0.587	0.878	1.07	0.883	1.03	0.648
NCI-H1666	1.23	1.19	1.09	0.643	0.974	0.828	0.762	0.776	0.481	0.825	0.697	0.732	0.751	0.636	0.736	0.87	1.25	0.969	0.765	0.35
NCI-H1734	0.617	0.78	0.631	0.606	0.731	0.902	0.931	0.947	0.782	0.875	0.582	0.427	0.523	0.403	0.486	1.08	0.904	0.681	0.456	0.325
NCI-H1755	0.867	0.896	0.822	0.704	0.831	1.06	1.07	1.04	0.818	0.939	0.74	0.706	0.743	0.676	0.706	1.01	0.95	0.938	0.455	0.371
NCI-H1792	0.991	0.998	1.07		1.06	0.523	0.618	0.617		0.451	0.642	0.519	0.561	0.495	0.496	1.29	1.08	0.5	1.07	0.437
NCI-H1915	0.86	0.951	0.912	0.841	0.893	1.14	1.08	1.09	1.04	1.1	0.261	0.279	0.246	0.232	0.268	0.971	1.06	0.6	0.949	0.284
NCI-H1975	0.988	0.957	1.02	0.718	0.971	1.02	0.947	0.957	0.808	0.9	0.404	0.356	0.324	0.365	0.385	0.467	0.368	0.345	0.318	0.217
NCI-H1993	0.897	0.9	0.784	0.63	0.743	0.683	0.694	0.672	0.679	0.792	0.557	0.558	0.675	0.499	0.432	1.11	1	1.45	0.788	0.594
NCI-H2009	1.11	1.09	1.02	0.971	1.06	1.28	1.2	1.15	0.712	1.13	0.356	0.381	0.359		0.347	1.01	0.967	0.801	0.755	0.167
